How the values were obtained:
SK-BR3/BT474 = assay: CTG cell survival assay, SK-BR3/BT474; type: cell-based; conditions: SK-BR3/BT474 cells
How it was run: (§1)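 Cells were exposed to compounds in a 3-fold dilution series, with a top final concentration of 10 uM in 0.1% DMSO. Viable cells were quantified by CellTiter-Glo ATP luminescence.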

MV-4-11 = assay: CTG cell survival assay, MV-4-11; type: cell-based; conditions: Homo sapiens, MV4-11, MV-4-11 cells
How it was run: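 Cells grown in RPMI 1640 with 10% FBS were plated and cultured 24 h at 37 °C, 5% CO2, then treated with compound diluted from 10 mM DMSO stocks. Viable cells were quantified as ATP by CellTiter-Glo luminescence.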

PC-3 = assay: CTG cell survival assay, PC-3; type: cell-based; conditions: Homo sapiens, PC-3 cells
How it was run: as §1

[1] = Solubility test in common aqueous vehicles; type: physicochemical; conditions: 25° C., pH = 3
mTOR kinase = mTOR kinase (Homo sapiens (Human), UniProt P42345); assay: mTOR kinase activity assay (TR-FRET, GFP-4EBP1 substrate); type: biochemical; conditions: read-out: Enzyme (mTOR) IC50
mTOR kinase, sequence (P42345 1360-2549): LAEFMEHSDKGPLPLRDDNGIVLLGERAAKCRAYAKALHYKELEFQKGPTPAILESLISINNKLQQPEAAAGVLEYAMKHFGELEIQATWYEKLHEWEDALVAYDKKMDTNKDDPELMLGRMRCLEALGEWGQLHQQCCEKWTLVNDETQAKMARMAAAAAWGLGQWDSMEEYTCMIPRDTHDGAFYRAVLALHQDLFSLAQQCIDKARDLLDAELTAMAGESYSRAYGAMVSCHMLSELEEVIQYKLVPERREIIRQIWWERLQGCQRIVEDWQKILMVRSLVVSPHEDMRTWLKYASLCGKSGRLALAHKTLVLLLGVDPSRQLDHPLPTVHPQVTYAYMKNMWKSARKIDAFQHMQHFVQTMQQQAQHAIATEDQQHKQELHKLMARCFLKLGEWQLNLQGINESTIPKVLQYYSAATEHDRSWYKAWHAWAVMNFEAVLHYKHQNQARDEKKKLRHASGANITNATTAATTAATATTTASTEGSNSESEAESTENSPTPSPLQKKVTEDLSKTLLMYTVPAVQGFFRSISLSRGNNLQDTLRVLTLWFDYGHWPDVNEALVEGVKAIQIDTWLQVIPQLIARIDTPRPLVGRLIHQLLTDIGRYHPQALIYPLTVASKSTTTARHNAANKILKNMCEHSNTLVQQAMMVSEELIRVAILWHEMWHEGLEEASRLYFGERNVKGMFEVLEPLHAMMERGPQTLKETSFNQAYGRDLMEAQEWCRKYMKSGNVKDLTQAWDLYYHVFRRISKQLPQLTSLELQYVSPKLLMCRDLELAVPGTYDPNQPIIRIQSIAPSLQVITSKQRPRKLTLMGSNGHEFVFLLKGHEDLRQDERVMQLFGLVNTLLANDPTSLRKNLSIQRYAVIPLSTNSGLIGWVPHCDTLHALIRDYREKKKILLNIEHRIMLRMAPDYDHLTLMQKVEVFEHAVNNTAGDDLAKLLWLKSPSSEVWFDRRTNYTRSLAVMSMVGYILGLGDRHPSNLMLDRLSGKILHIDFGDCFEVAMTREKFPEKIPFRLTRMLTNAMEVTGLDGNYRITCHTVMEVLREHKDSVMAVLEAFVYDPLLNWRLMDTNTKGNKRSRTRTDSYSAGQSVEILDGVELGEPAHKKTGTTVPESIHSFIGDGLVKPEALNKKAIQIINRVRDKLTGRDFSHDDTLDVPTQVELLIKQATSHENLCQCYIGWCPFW
Experimental: 1. mTOR Kinase Activity Assay: The inhibition of the mTOR protein kinase activity by the compounds was determined by the enzymatic activity assay in vitro. The detection kit supplied by Invitrogen was used to detect the inhibition of the activity of the mTOR […]. The principle of the assay was as follows: mTOR kinase, fluorescein-labeled substrate and ATP were mixed, and after the reaction, EDTA and terbium-labeled first antibody were added. During the chemical reaction process of the mTOR kinase, the antibody recognized the phosphorylated and fluorescein-labeled substrate, and then the “time-resolved fluorescence resonance energy transfer” (TR-FRET) effect was enhanced. TR-FRET effect was calculated as the ratio of signals from the acceptor fluorescein to signals from the donor terbium. The amount of the antibody bound to the tracer was directly proportional to the amount of the phosphorylated substrate after the reaction. In this way, the kinase activity can be detected. In this assay, the substrate of the mTOR kinase was green fluorescent protein-coupled 4E binding protein 1 (GFP-4EBP1).
1.1 Materials and Instruments:
4-Hydroxyethylpiperazine ethanesulfonic acid (HEPES, Sigma, Cat# SH3375), ethylene glycol-bis-(2-aminoethylether)-tetraacetic acid (EGTA, Sigma, Cat# E3889), manganese chloride (MnCl2, Sigma, Cat# M1787), Tween-20 (Tween-20, Amresco), 1,4-dithiothreitol (DTT, Merck, CB233155),

[2] = biological target: PI3K-alpha (PIK3CA/PIK3R1) (Homo sapiens (Human), UniProt P42336); assay: PI3K-alpha enzyme activity assay (ADP Glo); type: biochemical; conditions: read-out: Activity of inhibiting PI3K enzyme IC50
PI3K-alpha (PIK3CA/PIK3R1), sequence (P42336 whole entry, looked up): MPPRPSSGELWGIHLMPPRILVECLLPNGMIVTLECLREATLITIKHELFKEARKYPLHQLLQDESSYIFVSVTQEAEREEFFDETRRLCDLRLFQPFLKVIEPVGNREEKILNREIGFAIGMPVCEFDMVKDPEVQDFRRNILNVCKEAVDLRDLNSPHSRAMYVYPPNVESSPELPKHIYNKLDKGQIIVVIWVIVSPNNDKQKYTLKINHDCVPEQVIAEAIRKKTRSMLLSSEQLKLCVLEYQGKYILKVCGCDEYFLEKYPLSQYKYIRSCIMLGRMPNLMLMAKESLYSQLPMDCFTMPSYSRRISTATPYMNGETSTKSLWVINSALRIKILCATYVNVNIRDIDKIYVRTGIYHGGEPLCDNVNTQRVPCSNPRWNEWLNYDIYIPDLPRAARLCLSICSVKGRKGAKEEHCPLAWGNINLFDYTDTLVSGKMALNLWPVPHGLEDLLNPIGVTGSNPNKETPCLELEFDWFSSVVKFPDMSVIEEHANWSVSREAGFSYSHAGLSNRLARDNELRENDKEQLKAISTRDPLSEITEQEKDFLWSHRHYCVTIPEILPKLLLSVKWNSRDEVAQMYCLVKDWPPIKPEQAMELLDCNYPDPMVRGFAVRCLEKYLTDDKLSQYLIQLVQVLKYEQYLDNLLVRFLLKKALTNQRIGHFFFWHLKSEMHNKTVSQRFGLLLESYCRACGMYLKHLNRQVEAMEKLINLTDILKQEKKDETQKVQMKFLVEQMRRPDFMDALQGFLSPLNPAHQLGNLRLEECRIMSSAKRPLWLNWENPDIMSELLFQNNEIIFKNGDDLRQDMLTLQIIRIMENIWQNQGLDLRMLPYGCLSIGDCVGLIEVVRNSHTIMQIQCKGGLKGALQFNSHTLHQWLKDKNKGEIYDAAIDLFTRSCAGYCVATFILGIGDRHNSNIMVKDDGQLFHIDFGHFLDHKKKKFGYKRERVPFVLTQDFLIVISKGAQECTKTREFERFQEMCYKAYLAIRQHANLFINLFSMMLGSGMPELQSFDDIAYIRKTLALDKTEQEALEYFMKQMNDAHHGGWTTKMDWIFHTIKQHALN
PI3K-alpha (PIK3CA/PIK3R1), sequence (P27986 whole entry partner, looked up): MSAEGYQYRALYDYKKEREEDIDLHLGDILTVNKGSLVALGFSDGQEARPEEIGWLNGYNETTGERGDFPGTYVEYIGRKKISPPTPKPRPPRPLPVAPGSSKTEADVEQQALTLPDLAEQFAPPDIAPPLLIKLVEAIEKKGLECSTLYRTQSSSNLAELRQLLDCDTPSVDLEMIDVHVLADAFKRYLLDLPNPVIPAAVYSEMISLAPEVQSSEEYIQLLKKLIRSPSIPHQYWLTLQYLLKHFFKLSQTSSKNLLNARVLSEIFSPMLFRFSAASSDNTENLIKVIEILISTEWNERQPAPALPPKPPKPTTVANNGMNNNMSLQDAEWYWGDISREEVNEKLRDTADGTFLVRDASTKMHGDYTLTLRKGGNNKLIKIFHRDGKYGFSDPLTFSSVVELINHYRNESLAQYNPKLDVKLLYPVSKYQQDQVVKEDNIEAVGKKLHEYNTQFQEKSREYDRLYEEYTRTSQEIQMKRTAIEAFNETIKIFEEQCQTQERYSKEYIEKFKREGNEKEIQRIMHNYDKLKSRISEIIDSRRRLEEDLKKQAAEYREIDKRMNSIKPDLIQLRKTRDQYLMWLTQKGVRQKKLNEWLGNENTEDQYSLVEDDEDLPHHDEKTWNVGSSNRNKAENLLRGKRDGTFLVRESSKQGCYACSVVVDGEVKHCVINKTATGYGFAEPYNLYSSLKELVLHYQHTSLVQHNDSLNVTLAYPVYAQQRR
Source text: 3. PI3K-alpha Enzyme Activity Assay: PI3K alpha-ADP Glo Assay was employed. In the determination of PI3K enzyme activity, the detection kit supplied by Promega (Promega, Cat #: V9101) was used to detect the inhibition effect of the compounds on the activity of PI3K enzyme. The adenosine diphosphate produced during the whole enzymic reactions was quantified. The resulting values were used to calculate the activity of PI3K (Table 1).
3.1 Detection reagents: PIK3CA/PIK3R1 purchased from Invitrogen (Cat #: PV4788): The active kinase was diluted with kinase diluent III; and mixed with bovine serum albumin (BSA) in a ratio of 1:4 (5×dilution). The final BSA concentration was 50 ng/ml; and the compositions of Kinase Detection Solution I were: 25 mM MOPS, pH7.2, 12.5 mM β-glycerophosphate, 25 mM magnesium chloride, 5 mM EGTA, and 2 mM EDTA. Before use, 0.25 mM DTT was added to Kinase Detection Solution I; 250 μM adenosine triphosphate (ATP) Detection solution: 0.55 mg of ATP was dissolved in 4 ml of Kinase Detection Solution I, subdivided in 200 μl/vial and stored at −20° C. Substrate: Phosphatidylinositol (4,5) bis-phosphate; this substrate was diluted with Kinase Detection Solution I to a concentration of 125 μM. Final concentrations were: 10 μM PIP2, 10 μM ATP, 1% DMSO, and 0.0005-10 μM compounds.
a) Experimental Procedure: • 3.2.1 50 μL of the compounds diluted with dimethyl sulfoxide (DMSO) at a concentration of 100 μM were added to the 384-well dilution plate. The compounds were diluted with dimethyl sulfo de (DMSO) in a ratio of 1:3 (10 dilution concentrations plus 1 zero concentration). • 3.2.2 5 μL of the diluted compounds were transferred to the corresponding 384-well black Proxi plate (containing 47.5 μL of detection solution/well), and shaked for several seconds. • 3.2.3 2 μL of 2.5×PI3K working solution was added to 384-well black Proxi plate. • 3.2.4 2 μL of the diluted compounds were added to the detection plate (3 wells for each concentration). • 3.2.5 The plate was incubated at room temperature for 2 h. • 3.2.6 5 μL of ADP Glo Reagent was added. • 3.2.7 The plate was incubated at room temperature for 40 minutes. • 3.2.8 10 μL of the kinase detection reagent was added. • 3.2.9 The plate was incubated at room temperature for 40 minutes. • 3.2.10 The activity was detected by using Envision Reader.
The inhibition of the mTOR […] activity by the compounds ranges in 0.5 to several hundreds nanomoles, see Table 1.

| SMILES | EC50 (SK-BR3/BT474) [nM] | EC50 (MV-4-11) [nM] | EC50 (PC-3) [nM] | solubility ([1]; aqueous buffer, water) [µg/mL] | IC50 (mTOR kinase) [nM] | solubility ([1]; aqueous with cosolvent or surfactant or cyclodextrin, 30% hydroxypropyl-β-cyclodextrin) [µg/mL] | IC50 [2] [nM] |
| --- | --- | --- | --- | --- | --- | --- | --- |
| Cn1cc(-c2ccc(-c3ccc4ncc5c(c4c3)n(C3CCCN(C(=O)CO)C3)c(=O)n5C)cn2)cn1 (stereo not shown) [Example 1, 1-(1-(2-hydroxyacetyl)piperidin-3-yl)-3-methyl-8-(6-(1-methyl-1H-pyrazol-4-yl)pyridin-3-yl)-1H-imidazo[4,5-c]quinolin-2(3H)-one] | < 500 | < 1000 | < 200 | > 1000 | 10 to 100 | – | – |
| C[C@H](O)C(=O)N1CCCC(n2c(=O)n(C)c3cnc4ccc(-c5ccc(-c6cnn(C)c6)nc5)cc4c32)C1 (stereo partly drawn) [Example 4, 1-(1-((S)-2-hydroxypropionyl)piperidin-3-yl)-3-methyl-8-(6-(1-methyl-1H-pyrazol-4-yl)pyridin-3-yl)-1H-imidazo[4,5-c]quinolin-2(3H)-one] | < 500 | < 500 | < 200 | – | 10 to 100 | – | – |
| C[C@@H](O)C(=O)N1CCCC(n2c(=O)n(C)c3cnc4ccc(-c5ccc(-c6cnn(C)c6)nc5)cc4c32)C1 (stereo partly drawn) [Example 5, 1-(1-((R)-2-hydroxypropionyl)piperidin-3-yl)-3-methyl-8-(6-(1-methyl-1H-pyrazol-4-yl)pyridin-3-yl)-1H-imidazo[4,5-c]quinolin-2(3H)-one] | < 200 | < 500 | < 500 | – | < 10 | – | – |
| Cn1cc(-c2ccc(-c3ccc4ncc5c(c4c3)n(C3CCN(S(C)(=O)=O)C3)c(=O)n5C)cn2)cn1 (stereo not shown) [Example 6, 3-methyl-8-(6-(1-methyl-1H-pyrazol-4-yl)pyridin-3-yl)-1-(1-(methanesulfonyl)pyrrolidin-3-yl)-1H-imidazo[4,5-c]quinolin-2 (3H)-one] | < 50 | < 200 | < 50 | – | < 10 | – | – |
| CCN1CCC(n2c(=O)n(C)c3cnc4ccc(-c5ccc(-c6cnn(C)c6)nc5)cc4c32)C1 (stereo not shown) [Example 10, 1-(1-ethylpyrrolidin-3-yl)-3-methyl-8-(6-(1-methyl-1H-pyrazol-4-yl)pyridin-3-yl)-1H-imidazo[4,5-c]quinolin-2(3H)-one] | < 1000 | < 1000 | < 200 | – | 100 to 1000 | – | – |
| Cn1cc(-c2ccc(-c3ccc4ncc5c(c4c3)n([C@H]3CC[C@H](O)CC3)c(=O)n5C)cn2)cn1 [Example 17, 1-((1r,4r)-4-hydroxycyclohexyl)-3-methyl-8-(6-(1-methyl-1H-pyrazol-4-yl)pyridin-3-yl)-1H-imidazo[4,5-c]quinolin-2(3H)-one] | < 200 | < 500 | < 100 | – | < 10 | – | – |
| Cn1c(=O)n([C@H]2CC[C@@H](O)CC2)c2c3cc(-c4ccc(-c5ccccc5)nc4)ccc3ncc21 [Example 19, 1-((1s,4s)-4-hydroxycyclohexyl)-3-methyl-8-(6-phenylpyridin-3-yl)-1H-imidazo[4,5-c]quinolin-2(3H)-one] | < 100 | < 200 | < 50 | – | < 10 | > 1000 | – |
| COc1ncc(-c2ccc3ncc4c(c3c2)n([C@H]2CC[C@@H](O)CC2)c(=O)n4C)cc1C [Example 20, 1-((1s,4s)-4-hydroxycyclohexyl)-8-(6-methoxyl-5-methylpyridin-3-yl)-3-methyl-1H-imidazo[4,5-c]quinolin-2(3H)-one] | < 500 | < 200 | < 200 | – | 10 to 100 | – | – |
| Cn1c(=O)n([C@H]2CC[C@@H](O)CC2)c2c3cc(-c4cnn(-c5ccccc5)c4)ccc3ncc21 [Example 21, 1-((1s,4s)-4-hydroxycyclohexyl)-3-methyl-8-(1-phenyl-1H-pyrazol-4-yl)-1H-imidazo[4,5-c]quinolin-2(3H)-one] | < 500 | < 200 | < 500 | – | 10 to 100 | – | – |
| Cc1ccc(-c2ccc3ncc4c(c3c2)n([C@H]2CC[C@@H](O)CC2)c(=O)n4C)cn1 [Example 22, 1-((1s,4s)-4-hydroxycyclohexyl)-3-methyl-8-(6-methylpyridin-3-yl)-1H-imidazo[4,5-c]quinolin-2(3H)-one] | < 200 | < 200 | < 200 | – | 10 to 100 | – | – |
| Cn1c(=O)n([C@H]2CC[C@H](O)CC2)c2c3cc(-c4cnn(-c5ccccc5)c4)ccc3ncc21 [Example 23, 1-((1r,4r)-4-hydroxycyclohexyl)-3-methyl-8-(1-phenyl-1H-pyrazol-4-yl)-1H-imidazo[4,5-c]quinolin-2(3H)-one] | < 500 | < 500 | < 200 | – | 10 to 100 | – | – |
| COc1ncc(-c2ccc3ncc4c(c3c2)n([C@H]2CC[C@H](O)CC2)c(=O)n4C)cc1C [Example 24, 1-((1r,4r)-4-hydroxycyclohexyl)-8-(6-methoxyl-5-methylpyridin-3-yl)-3-methyl-1H-imidazo[4,5-c]quinolin-2(3H)-one] | < 500 | < 500 | < 200 | – | 10 to 100 | – | – |
| Cn1cc(-c2ccc(-c3ccc4ncc5c(c4c3)n([C@@H]3CCN(S(C)(=O)=O)C3)c(=O)n5C)cn2)cn1 [Example 27, (R)-3-methyl-8-(6-(1-methyl-1H-pyrazol-4-yl)pyridin-3-yl)-1-(1-(methanesulfonyl)pyrrolidin-3-yl)-1H-imidazo[4,5-c]quinolin-2(3H)-one] | < 1000 | – | – | – | 100 to 1000 | – | < 10 |
| Cn1cc(-c2ccc(-c3ccc4ncc5c(c4c3)n(C3CCCC(O)C3)c(=O)n5C)cn2)cn1 (stereo not shown) [Example 32, 1-(3-hydroxycyclohexyl)-3-methyl-8-(6-(1-methyl-1H-pyrazol-4-yl)pyridin-3-yl)-1H-imidazo[4,5-c]quinolin-2(3H)-one] | < 100 | < 200 | < 50 | – | < 10 | – | – |
| CCS(=O)(=O)N1CCC[C@@H](n2c(=O)n(C)c3cnc4ccc(-c5ccc(-c6cnn(C)c6)nc5)cc4c32)C1 [Example 52, (R)-1-(1-(ethylsulfonyl)piperidin-3-yl)-3-methyl-8-(6-(1-methyl-1H-pyrazol-4-yl)pyridin-3-yl)-1H-imidazo[4,5-c]quinolin-2(3H)-one] | 50 | < 30 | < 30 | > 1000 | – | – | – |
